Assay results published in PubChem BioAssay (NCI).
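Values below derive from 48-hour exposures of cells grown in 96-well plates, with endpoints linearly interpolated between the two concentrations bracketing the appropriate inhibition level. TGI denotes the concentration required for complete inhibition of growth.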

Legend:
Test in all cases: DTP human tumour cell line panel, 48 h
ACHN renal = system: ACHN renal
UACC-257 melanoma = system: UACC-257 melanoma
HL-60(TB) leukemia = system: HL-60(TB) leukemia
SN12C renal = system: SN12C renal
UO-31 renal = system: UO-31 renal
RPMI-8226 leukemia = system: RPMI-8226 leukemia
NCI-H460 lung = system: NCI-H460 lung
SW-620 colon = system: SW-620 colon
IGROV1 ovarian = system: IGROV1 ovarian
EKVX NSCLC = system: EKVX NSCLC
MALME-3M melanoma = system: MALME-3M melanoma
A498 renal = system: A498 renal
NCI-H23 lung = system: NCI-H23 lung
SK-MEL-28 melanoma = system: SK-MEL-28 melanoma
SK-OV-3 ovarian = system: SK-OV-3 ovarian
SK-MEL-5 melanoma = system: SK-MEL-5 melanoma
OVCAR-8 ovarian = system: OVCAR-8 ovarian
A549 NSCLC = system: A549 NSCLC
COLO 205 colon = system: COLO 205 colon
HCT-116 colon = system: HCT-116 colon
NCI-H522 lung = system: NCI-H522 lung
CCRF-CEM leukemia = system: CCRF-CEM leukemia
HCT-15 colon = system: HCT-15 colon
OVCAR-3 ovarian = system: OVCAR-3 ovarian
MOLT-4 leukemia = system: MOLT-4 leukemia
XF 498 CNS = system: XF 498 CNS
SNB-78 CNS = system: SNB-78 CNS
M14 melanoma = system: M14 melanoma
SR leukemia = system: SR leukemia
DMS 114 small cell lung = system: DMS 114 small cell lung
OVCAR-5 ovarian = system: OVCAR-5 ovarian
TK-10 renal = system: TK-10 renal
CAKI-1 renal = system: CAKI-1 renal
LXFL 529 NSCLC = system: LXFL 529 NSCLC
KM20L2 colon = system: KM20L2 colon
M19-MEL melanoma = system: M19-MEL melanoma
U251 CNS = system: U251 CNS
DMS 273 small cell lung = system: DMS 273 small cell lung
LOX IMVI melanoma = system: LOX IMVI melanoma
SF-268 CNS = system: SF-268 CNS
HCC-2998 colon = system: HCC-2998 colon
UACC-62 melanoma = system: UACC-62 melanoma
NCI-H226 lung = system: NCI-H226 lung
KM12 colon = system: KM12 colon
HOP-92 NSCLC = system: HOP-92 NSCLC
SK-MEL-2 melanoma = system: SK-MEL-2 melanoma
SNB-19 CNS = system: SNB-19 CNS
HOP-62 NSCLC = system: HOP-62 NSCLC
OVCAR-4 ovarian = system: OVCAR-4 ovarian
K-562 leukemia = system: K-562 leukemia
SF-295 CNS = system: SF-295 CNS
HT29 colon = system: HT29 colon
SF-539 CNS = system: SF-539 CNS
786-0 renal = system: 786-0 renal
RXF 393 renal = system: RXF 393 renal
DLD-1 colon = system: DLD-1 colon
HOP-18 NSCLC = system: HOP-18 NSCLC
SNB-75 CNS = system: SNB-75 CNS

Measured: TGI

CCOC(=O)/C(=C/c1ccc(OC)cc1)N(CC)CC
not listed: RXF 393 renal | DLD-1 colon | HOP-18 NSCLC | SNB-75 CNS
> 100 µM: all other assays above

CCCCCCCCCCCCNC(=S)OC
27.9 µM: HL-60(TB) leukemia
30.7 µM: UACC-62 melanoma
31.1 µM: SK-MEL-2 melanoma
28.7 µM: LOX IMVI melanoma
33 µM: ACHN renal
9.43 µM: MOLT-4 leukemia
31 µM: SK-MEL-5 melanoma
30 µM: KM20L2 colon
30.6 µM: XF 498 CNS
33.3 µM: CCRF-CEM leukemia
45 µM: SNB-75 CNS
29.7 µM: OVCAR-8 ovarian
29.5 µM: MALME-3M melanoma | U251 CNS
31.6 µM: A498 renal
38.6 µM: OVCAR-4 ovarian
28.2 µM: LXFL 529 NSCLC
30.9 µM: OVCAR-5 ovarian | SF-539 CNS
32.3 µM: HOP-18 NSCLC
37.9 µM: SK-MEL-28 melanoma
24.3 µM: IGROV1 ovarian
25.7 µM: RXF 393 renal
39.6 µM: K-562 leukemia
31.2 µM: NCI-H460 lung
28.3 µM: CAKI-1 renal
34 µM: NCI-H23 lung
45.9 µM: SNB-78 CNS
27.7 µM: HCT-15 colon
36.6 µM: EKVX NSCLC
30.2 µM: SW-620 colon
17.8 µM: UO-31 renal
32.5 µM: UACC-257 melanoma
32.8 µM: SF-268 CNS | HT29 colon
27.5 µM: RPMI-8226 leukemia
36 µM: SF-295 CNS
20.1 µM: HOP-92 NSCLC
17.9 µM: SR leukemia | DMS 114 small cell lung
29.3 µM: HCT-116 colon | DMS 273 small cell lung | 786-0 renal
27.3 µM: SN12C renal
29.6 µM: KM12 colon
34.5 µM: TK-10 renal
35 µM: SK-OV-3 ovarian | A549 NSCLC
26 µM: NCI-H522 lung
32.9 µM: HCC-2998 colon
31.9 µM: HOP-62 NSCLC
28.9 µM: DLD-1 colon
32.7 µM: M19-MEL melanoma
32.1 µM: M14 melanoma
69.8 µM: SNB-19 CNS

CC1(C)CC(c2c[nH]c3ccccc23)=CC2=Nc3ccccc3C21O (stereo not drawn)
57.7 µM: NCI-H226 lung
77.7 µM: SK-MEL-28 melanoma
64.3 µM: HOP-92 NSCLC
25.4 µM: SNB-75 CNS
not listed: SR leukemia | HCC-2998 colon | HOP-18 NSCLC
> 100 µM: all other assays above

N#CC(C(=O)CCC(=O)Nc1ccc(Cl)c(Cl)c1)c1ccccc1 (stereo not drawn)
not listed: NCI-H460 lung | SK-OV-3 ovarian | COLO 205 colon | NCI-H522 lung | CCRF-CEM leukemia | SR leukemia | TK-10 renal | LXFL 529 NSCLC | LOX IMVI melanoma
> 100 µM: all other assays above
